Like-named read-outs stand apart in the source and are kept apart here.
Legend:
Format in all cases: cell-based
P2X7 receptor [1] = target: T1, P2X7 receptor (Rattus norvegicus, UniProt Q64663); assay: Whole-cell recordings of agonist-evoked currents in HEK293 cells transfected with rat P2X7 cDNA (Example 2); details: for EC50: read-out: EC50 (half-maximal concentration) for current
T1 construct: yielding a construct that encoded the entire P2X7 protein; expressed in transfected cells
T1 sequence (Q64663 1-595): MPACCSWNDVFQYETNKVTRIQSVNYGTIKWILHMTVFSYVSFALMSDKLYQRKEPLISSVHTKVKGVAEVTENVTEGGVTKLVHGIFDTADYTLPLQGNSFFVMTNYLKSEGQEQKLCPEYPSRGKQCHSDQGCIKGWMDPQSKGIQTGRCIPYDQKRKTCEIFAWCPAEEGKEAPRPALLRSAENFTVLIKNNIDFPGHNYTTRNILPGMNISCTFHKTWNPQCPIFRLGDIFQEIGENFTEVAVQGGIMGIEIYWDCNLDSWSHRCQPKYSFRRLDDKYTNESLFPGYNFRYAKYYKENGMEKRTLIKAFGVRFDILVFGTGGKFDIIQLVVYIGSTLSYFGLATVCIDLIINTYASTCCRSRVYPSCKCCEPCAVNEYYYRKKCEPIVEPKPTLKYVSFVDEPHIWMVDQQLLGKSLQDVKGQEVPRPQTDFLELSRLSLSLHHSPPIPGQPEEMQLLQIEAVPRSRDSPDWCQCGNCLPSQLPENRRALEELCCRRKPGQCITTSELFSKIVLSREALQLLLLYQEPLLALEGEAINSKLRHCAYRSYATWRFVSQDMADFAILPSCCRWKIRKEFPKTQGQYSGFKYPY
Experimental: Whole-cell recordings were obtained at room temperature from HEK293 cells transiently or stably transfected with P2X7 cDNA, from HEK293 cells transiently transfected with P2X7ΔC cDNA, and from J774A.1 cells (American Type Culture Collection, Rockville, Md.). Agonist were applied for periods of 1 to 3 s by a fast-flow U-tube delivery system (Fenwick et al, J. Physiol. (London) 331:577 (1982)). The internal pipette solution was 140 mM cesium-aspartate or potassium-aspartate, 20 mM NaCl, 10 mM EGTA, and 5 mM Hepes: normal external solution was 145 mM NaCl, 2 mM KCl, 2 mM CaCl2, 1 mM MgCl2, 10 mM Hepes, and 12 mM glucose. Low divalent external solution was nominally magnesium-free with 0.3 mM CaCl2. For cells expressing P2X7 receptors and J774 cells, concentration-response curves were constructed in low divalent solution by recording currents in response to 1-s applications of agonist at 8-min intervals with normal external solution present for 6 min before each application. This protocol was necessary to prevent the development of sustained inward currents. Lipofectin was used for transfection (Buell et al, EMBO J. 15:55 (1996)).
Reversal potentals (Erev) were obtained by application of ATP (300 μM) or BzATP (30 μM) while the membrane was held at various potentals or by application of voltage ramps from −120 to 30 or 50 mV. Permeability ratios from (Erev) were calculated by first computing α (=Pna/PK, where P is permeability) for internal (i) and external (o) concentrations [Na]i=20 mM, [Na]o=145 mM, [Ko]=0 mM, and [K]i=140 mM from α={[145/exp(Erev)F/RT −20]}/140 (where F is the Faraday, R is the gas constant, and T is the absolute temperature). Other PK/PNa values, when [X]o=145 mM, [Na]i=20 mM, [K]i=140 mM, and [Na]o=[K]o=[X]i=0 mM, were computed from PK/PNa={[exp (ErevF/RT) (20=140α)}/145. In order of size (FIG. 3C), X was cesium, methylamine, tris(hydroxymethyl)-aminomethane, tetraethylammonium, and N-methyl-D-glucamine. The internal solution also contained 10 mM EGTA and 5 mM Hepes. External solutions also contained 10 mM glucose and normal or low concentrations of divalent cations; pH was maintained at 7.3 with HCl, histidine, or Hepes as required, and the osmolarity of all solutions was 295 to 315.

hP2X7 receptor = target: T2, hP2X7 receptor (Homo sapiens, UniProt Q99572); assay: Whole-cell recordings in HEK293 cells transiently transfected with hP2X7 receptors (Example 3)
T2 construct: a clone containing the complete open reading frame of the hP2X7 receptor was constructed; expressed in transfected cells; host or cells: HEK293 (transient), pcDNA3
T2 sequence (Q99572 1-595): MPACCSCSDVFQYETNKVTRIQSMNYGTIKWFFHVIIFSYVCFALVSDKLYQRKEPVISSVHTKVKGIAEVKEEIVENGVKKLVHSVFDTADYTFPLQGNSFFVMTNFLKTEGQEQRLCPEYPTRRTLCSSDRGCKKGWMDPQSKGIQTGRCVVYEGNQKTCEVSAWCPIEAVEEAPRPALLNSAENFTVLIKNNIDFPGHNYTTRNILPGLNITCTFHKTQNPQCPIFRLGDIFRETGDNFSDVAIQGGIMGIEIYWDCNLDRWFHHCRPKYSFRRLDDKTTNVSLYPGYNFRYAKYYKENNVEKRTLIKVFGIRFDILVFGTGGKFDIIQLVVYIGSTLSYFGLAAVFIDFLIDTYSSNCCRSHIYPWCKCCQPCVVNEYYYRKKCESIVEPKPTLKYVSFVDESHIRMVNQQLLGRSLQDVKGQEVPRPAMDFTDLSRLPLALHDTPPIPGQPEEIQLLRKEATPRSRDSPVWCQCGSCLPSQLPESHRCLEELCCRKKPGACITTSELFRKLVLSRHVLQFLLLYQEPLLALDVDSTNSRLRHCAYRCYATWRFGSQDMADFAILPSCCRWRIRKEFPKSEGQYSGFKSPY
Experimental: Cell culture. HEK293 cells were transiently transfected with cDNA (1 μg/ml) and lipofectin dissolved in Optimem (GIBCO) placed into petri dishes containing four coverslips onto which cells were plated at a density of about 8×10^4/coverslip. Cells were washed 5 h later and normal DMEM applied. Electrophysiological studies or dye uptake measurements were carried out 18-49 h later. For each set of transfections, parallel experiments were performed on HEK cells transfected with cDNA encoding both rP2X7 and hP2X7 receptors.
Electrophysiological experiments. Whole-cell recordings were made using the EPC9 patch-clamp amplifier and Pulse acquisition programs (HEKA, Lambrecht, Germany). Patch pipettes (5-7 MΩ) contained (mM) CsCl or NaCl 154, EGTA 10, HEPES 5. The normal extracellular solution contained (mM) NaCg 147, KCl2, CaCl2 2, MgCl2 1, HEPES 10 and glucose 12, and the “low divalent” solution had no magnesium and 0.3 mM CaCl2. Agonists were delivered by U-tube delivery system; antagonists, when applied, were present in both superfusion and U-tube. Experiments were carried out at room temperature.

P2X7 receptor [2] = target: T1, P2X7 receptor; assay: Whole-cell recordings of agonist-evoked currents in HEK293 cells transfected with rat P2X7 cDNA (Example 2); details: inward currents, brief application (0.5 to 2 s)

Structure (SMILES): Nc1ncnc2c1ncn2[C@@H]1O[C@H](COP(=O)(O)OP(=O)(O)OP(=O)(O)O)[C@@H](OC(=O)c2ccc(C(=O)c3ccccc3)cc2)[C@H]1O [BzATP, 3′-O-(4-benzoyl)benzoyl ATP]
- Current amplitude (mean±SEM) to BzATP (P2X7 receptor [1]; 30 μM BzATP, normal solution, holding potential −70 mV, transiently transfected HEK cells, n=18): 636±118 pA
- EC50 (P2X7 receptor [1]; normal solution (2 mM CaCl2, 1 mM MgCl2), n=4): 7 ± 2 µM
- EC50 (P2X7 receptor [1]; zero magnesium, n=7): 3.7 ± 0.7 µM
- EC50 at hP2X7 relative to rP2X7 receptor (fold greater) (hP2X7 receptor): 25 fold
- potency to activate the receptor relative to ATP (hP2X7 receptor): 10 fold
- cation current induced by maximal concentration of BzATP (hP2X7 receptor; 300 μM BzATP, n=12): 1777±342 pA
- current measured at 30 s, of the peak current (hP2X7 receptor; BzATP 300 μM, low extracellular divalent concentrations, n=16): 18±2%
- agonist order of potency (P2X7 receptor [2]): BzATP>>ATP>2MeSATP>ATP-γ-S>>ADP

Source: patent US6509163B1, “Methods of screening modulators of mammalian P2X7 purinergic receptors” (Glaxo Group Limited, priority 1997, dated 2003)
